Results published in US20230107598A1, “SORGHUM DOUBLED HAPLOID […]” (PIONEER HI-BRED INTERNATIONAL, INC., priority 2020, published 2023).

Tested on: haploid sorghum plants
Assay: Chromosome doubling of haploid sorghum plants by root treatment with colchicine
Assay type: in vivo
Conditions: colchicine 0.05%, 5 hours, roots
From the text: Plants from diploid sorghum genotypes, “PHI01”, “PHI02”, “PHI03”, “PHI04”, “PHI05”, “PHI06”, “PHI07”, “PHI08”, “PHI09”, “PHI10”, “PHI11”, “PHI12”, “PHI13”, “PHI14”, “PHI15”, “PHI16”, “PHI17”, “PHI18”, “PHI19”, and “PHI20” were pollinated with pollen obtained from pearl millet line PHI01A, as described in Example 2. Immature haploid embryos were isolated, as described in Example 2, 10-20 days after pollination and embryo sizes ranged from 0.1-3 mm long. These haploid embryos were germinated on a medium (see Table 4) in the dark. The germinated haploid embryos were then transferred to fresh media for an additional 7-10 days at 21°−26° C. in the dark until germinated plantlets formed. The germinated plantlets were then transferred to a light culture room and grown at 21°−26° C. for another 2-3 weeks until healthy plantlets having good roots developed. These plantlets were then potted into soil and grown in a regular greenhouse for 5-6 weeks. Upon healthy plant establishment, the roots were treated with a chromosome doubling agent, colchicine, for 5 hours in the dark. Additional chromosome doubling agents for example, pronamide, dithipyr, oryzalin, AMP, and trifluralin, or any of the other chromosome doubling agents referenced in Table 1 can also be used. After treatment with the doubling agent, the roots were then thoroughly rinsed with running water for 30 min, to remove the residual doubling agent and then potted in soil and grown to maturity.

[1] = PHI01/2018, 15 haploid plants treated
[2] = PHI02/2018, 63 haploid plants treated
[3] = PHI02/2019, 17 haploid plants treated
[4] = PHI02/2020, 13 haploid plants treated
[5] = PHI03/2018, 20 haploid plants treated
[6] = PHI04/2018, 9 haploid plants treated
[7] = PHI05/2018, 3 haploid plants treated
[8] = PHI05/2019, 4 haploid plants treated
[9] = PHI05/2020, 1 haploid plant treated
[10] = PHI06/2018, 24 haploid plants treated
[11] = PHI07/2018, 24 haploid plants treated
[12] = PHI08/2018, 2 haploid plants treated
[13] = PHI09/2018, 8 haploid plants treated
[14] = PHI09/2019, 14 haploid plants treated
[15] = PHI09/2020, 10 haploid plants treated
[16] = PHI10/2018, 38 haploid plants treated
[17] = PHI10/2019, 36 haploid plants treated
[18] = PHI10/2020, 25 haploid plants treated
[19] = PHI11/2019, 2 haploid plants treated
[20] = PHI11/2020, 2 haploid plants treated
[21] = PHI12/2019, 8 haploid plants treated
[22] = PHI12/2020, 1 haploid plant treated
[23] = PHI13/2019, 30 haploid plants treated
[24] = PHI13/2020, 18 haploid plants treated
[25] = PHI14/2019, 53 haploid plants treated
[26] = PHI14/2020, 14 haploid plants treated
[27] = PHI15/2019, 15 haploid plants treated
[28] = PHI15/2020, 5 haploid plants treated
[29] = PHI16/2019, 27 haploid plants treated
[30] = PHI17/2020, 4 haploid plants treated
[31] = PHI18/2020, 6 haploid plants treated
[32] = PHI19/2020, 23 haploid plants treated
[33] = PHI20/2020, 9 haploid plants treated
[34] = Sum of all genotypes/years, 543 haploid plants treated

COc1cc2c(c(OC)c1OC)-c1ccc(OC)c(=O)cc1[C@@H](NC(C)=O)CC2 [Colchicine, (S)-N-(5,6,7,9-tetrahydro-1,2,3,10-tetramethoxy-9-oxobenzo (a)heptalen-7-yl) acetamide]
DH Success rate (%) [1]: 100%
Number of Fully Fertile DH plants [1]: 15
Number of plants survived after treatment [1]: 15
DH Success rate (%) [2]: 98%
Number of Fully Fertile DH plants [2]: 62
Number of plants survived after treatment [2]: 62
DH Success rate (%) [3]: 100%
Number of Fully Fertile DH plants [3]: 17
Number of plants survived after treatment [3]: 17
DH Success rate (%) [4]: 100%
Number of Fully Fertile DH plants [4]: 13
Number of plants survived after treatment [4]: 13
DH Success rate (%) [5]: 100%
Number of Fully Fertile DH plants [5]: 20
Number of plants survived after treatment [5]: 20
DH Success rate (%) [6]: 100%
Number of Fully Fertile DH plants [6]: 9
Number of plants survived after treatment [6]: 9
DH Success rate (%) [7]: 100%
Number of Fully Fertile DH plants [7]: 3
Number of plants survived after treatment [7]: 3
DH Success rate (%) [8]: 100%
Number of Fully Fertile DH plants [8]: 4
Number of plants survived after treatment [8]: 4
DH Success rate (%) [9]: 100%
Number of Fully Fertile DH plants [9]: 1
Number of plants survived after treatment [9]: 1
DH Success rate (%) [10]: 100%
Number of Fully Fertile DH plants [10]: 24
Number of plants survived after treatment [10]: 24
DH Success rate (%) [11]: 96%
Number of Fully Fertile DH plants [11]: 23
Number of plants survived after treatment [11]: 23
DH Success rate (%) [12]: 100%
Number of Fully Fertile DH plants [12]: 2
Number of plants survived after treatment [12]: 2
DH Success rate (%) [13]: 100%
Number of Fully Fertile DH plants [13]: 8
Number of plants survived after treatment [13]: 8
DH Success rate (%) [14]: 93%
Number of Fully Fertile DH plants [14]: 13
Number of plants survived after treatment [14]: 14
DH Success rate (%) [15]: 100%
Number of Fully Fertile DH plants [15]: 10
Number of plants survived after treatment [15]: 10
DH Success rate (%) [16]: 100%
Number of Fully Fertile DH plants [16]: 38
Number of plants survived after treatment [16]: 38
DH Success rate (%) [17]: 97%
Number of Fully Fertile DH plants [17]: 35
Number of plants survived after treatment [17]: 35
DH Success rate (%) [18]: 100%
Number of Fully Fertile DH plants [18]: 25
Number of plants survived after treatment [18]: 25
DH Success rate (%) [19]: 100%
Number of Fully Fertile DH plants [19]: 2
Number of plants survived after treatment [19]: 2
DH Success rate (%) [20]: 100%
Number of Fully Fertile DH plants [20]: 2
Number of plants survived after treatment [20]: 2
DH Success rate (%) [21]: 100%
Number of Fully Fertile DH plants [21]: 8
Number of plants survived after treatment [21]: 8
DH Success rate (%) [22]: 100%
Number of Fully Fertile DH plants [22]: 1
Number of plants survived after treatment [22]: 1
DH Success rate (%) [23]: 100%
Number of Fully Fertile DH plants [23]: 30
Number of plants survived after treatment [23]: 30
DH Success rate (%) [24]: 100%
Number of Fully Fertile DH plants [24]: 18
Number of plants survived after treatment [24]: 18
DH Success rate (%) [25]: 98%
Number of Fully Fertile DH plants [25]: 52
Number of plants survived after treatment [25]: 52
DH Success rate (%) [26]: 93%
Number of Fully Fertile DH plants [26]: 13
Number of plants survived after treatment [26]: 13
DH Success rate (%) [27]: 100%
Number of Fully Fertile DH plants [27]: 15
Number of plants survived after treatment [27]: 15
DH Success rate (%) [28]: 100%
Number of Fully Fertile DH plants [28]: 5
Number of plants survived after treatment [28]: 5
DH Success rate (%) [29]: 100%
Number of Fully Fertile DH plants [29]: 27
Number of plants survived after treatment [29]: 27
DH Success rate (%) [30]: 100%
Number of Fully Fertile DH plants [30]: 4
Number of plants survived after treatment [30]: 4
DH Success rate (%) [31]: 100%
Number of Fully Fertile DH plants [31]: 6
Number of plants survived after treatment [31]: 6
DH Success rate (%) [32]: 100%
Number of Fully Fertile DH plants [32]: 23
Number of plants survived after treatment [32]: 23
DH Success rate (%) [33]: 100%
Number of Fully Fertile DH plants [33]: 9
Number of plants survived after treatment [33]: 9
DH Success rate (%) [34]: 99%
Number of Fully Fertile DH plants [34]: 537
Number of plants survived after treatment [34]: 538
